Columns and labels:
[1] = tested on: Mycobacterium smegmatis NRRL B-14616; assay: Growth inhibition in liquid culture; type: cell-based; conditions: 100 ug ml^-1, R2A, 37° C., 24 hours
Experimental: (§1) Antibiotic activity for purified PnPs was examined by growth inhibition in liquid cultures. Salmonella typhimurium LT2, Escherichia coli WM6242 (±1 mM IPTG), and Pseudomonas aeruginosa K were grown in M9-glucose. Bacillus subtilis subsp. spizizenii ATCC 6633, Staphylococcus aureus ATCC 25923, and Mycobacterium smegmatis NRRL B-14616 (37° C.) were cultivated in R2A. 96-Well plates containing 150 μL of media was inoculated with 1.5 uL of the appropriate cultures (OD600=0.4-0.5). Kanamycin, aminomethylphosphonate, 1-hydroxy-2-aminoethylphosphonate, (R)-2,3-dihydroxypropylphosphonate, argolaphos A, and argolaphos B were added to a final concentration of 100 ug ml^−1. After growth for 16 hours (24 for M. smegmatis) in a shaking incubator (200 rpm), cell densities recorded on a Tecan microplate reader.

[2] = Stability in the course of purification; type: physicochemical; conditions: fraction 2 of S. durhamensis NRRL B-3309 extract
Experimental: The liquid was concentrated to dryness and dissolved in 200 mL of 0.1% aqueous acetic acid, which was then applied to a 100 mL Fe(III) IMAC gravity column. Before sample loading the column was equilibrated with 0.1% acetic acid. After sample loading, the column was washed successively with 5 volumes of 0.1% acetic acid and 0.1% acetic acid in 20% acetonitrile (ACN). The materials were eluted from the column with 100 mM aqueous NH4HCO3. The eluate (200 mL) from the iron IMAC column was dried with a rotary evaporator as fraction 1. The unabsorbed sample was also dried as fraction 2.

Escherichia coli WM6242 = assay: Growth inhibition in liquid culture; type: cell-based; conditions: upon induction of phosphonate uptake machinery (1 mM IPTG); 100 ug ml^-1
Experimental: as §1

O=P(O)(O)C[C@H](O)CO [Compound 4, (R)-2,3-dihydroxypropylphosphonic acid]
growth inhibition of Mycobacterium smegmatis [1]: slightly inhibited growth

cyclic 2,3-dihydroxypropanoic acid [Compound 6]
stability during purification [2]: unstable and easily decomposed

NCC(O)OP(=O)(O)O (stereo not drawn) [Compound 11, 1-hydroxy-2-aminoethylphosphoric acid]
antibiotic activity against E. coli (Escherichia coli WM6242): effective antibiotic
